In ChEMBL document CHEMBL4184167, “Fluoroethoxy-1,4-diphenethylpiperidine and piperazine derivatives: Potent and selective inhibitors of [3H]dopamine uptake at the vesicular monoamine transporter-2” (Bioorg Med Chem Lett, 2017):
pIC50, pKi: −log10 of the molar value.

Assays:
[1] = molecular target: Synaptic vesicular amine transporter (Rattus norvegicus, UniProt Q01827); assay: Inhibition of [3H]dopamine uptake at VMAT2 in rat striatal synaptic vesicles by scintillation spectrometry
[2] = molecular target: Sodium-dependent dopamine transporter (Rattus norvegicus, UniProt P23977); assay: Inhibition of [3H]dopamine uptake at dopamine transporter in rat striatal synaptosomes preincubated for 5 mins followed by radioligand addition measured after 10 mins by scintillation spectrometry; assay type: subcellular, Striatum
Chain of Sodium-dependent dopamine transporter (P23977 whole entry): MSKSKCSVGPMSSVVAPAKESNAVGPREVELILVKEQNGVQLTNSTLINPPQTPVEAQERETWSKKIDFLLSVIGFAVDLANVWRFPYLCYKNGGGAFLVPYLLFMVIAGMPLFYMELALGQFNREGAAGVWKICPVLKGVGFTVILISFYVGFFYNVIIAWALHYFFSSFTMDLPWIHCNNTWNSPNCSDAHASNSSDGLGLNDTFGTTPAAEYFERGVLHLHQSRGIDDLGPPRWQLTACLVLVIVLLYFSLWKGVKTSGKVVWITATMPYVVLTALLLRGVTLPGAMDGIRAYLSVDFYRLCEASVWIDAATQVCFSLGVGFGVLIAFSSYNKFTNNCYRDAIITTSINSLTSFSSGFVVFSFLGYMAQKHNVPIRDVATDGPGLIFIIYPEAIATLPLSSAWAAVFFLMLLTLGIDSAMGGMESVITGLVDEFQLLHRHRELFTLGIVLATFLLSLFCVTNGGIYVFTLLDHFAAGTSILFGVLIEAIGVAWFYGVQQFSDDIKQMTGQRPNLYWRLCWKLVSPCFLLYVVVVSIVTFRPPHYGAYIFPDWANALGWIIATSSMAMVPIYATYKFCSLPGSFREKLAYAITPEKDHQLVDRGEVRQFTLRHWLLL

[3] = molecular target: Sodium-dependent serotonin transporter (Rattus norvegicus, UniProt P31652); assay: Inhibition of [3H]serotonin uptake at SERT in rat striatal synaptosomes preincubated for 5 mins followed by radioligand addition measured after 10 mins by scintillation spectrometry; assay type: subcellular, Striatum
Chain of Sodium-dependent serotonin transporter (P31652 whole entry): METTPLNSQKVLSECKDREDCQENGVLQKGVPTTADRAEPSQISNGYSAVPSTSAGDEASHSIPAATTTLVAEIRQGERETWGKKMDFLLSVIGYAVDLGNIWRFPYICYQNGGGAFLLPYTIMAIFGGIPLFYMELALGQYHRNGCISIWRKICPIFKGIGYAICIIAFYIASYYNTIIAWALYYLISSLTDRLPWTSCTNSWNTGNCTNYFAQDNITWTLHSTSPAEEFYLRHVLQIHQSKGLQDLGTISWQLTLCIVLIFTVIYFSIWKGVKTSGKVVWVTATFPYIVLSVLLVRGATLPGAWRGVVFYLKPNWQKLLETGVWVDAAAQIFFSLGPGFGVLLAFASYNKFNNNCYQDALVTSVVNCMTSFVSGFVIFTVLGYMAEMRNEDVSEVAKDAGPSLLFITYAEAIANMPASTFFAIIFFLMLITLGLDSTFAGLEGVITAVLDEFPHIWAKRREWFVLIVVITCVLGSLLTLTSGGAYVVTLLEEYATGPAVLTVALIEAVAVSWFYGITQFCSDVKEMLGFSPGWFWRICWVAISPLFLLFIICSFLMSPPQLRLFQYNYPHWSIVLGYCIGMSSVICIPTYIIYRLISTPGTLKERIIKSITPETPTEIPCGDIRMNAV

[4] = molecular target: Voltage-gated inwardly rectifying potassium channel KCNH2 (Homo sapiens, UniProt Q12809); assay: Displacement of [3H]Dofetilide from human ERG expressed in HEK293 cells after 60 mins by scintillation spectrometry
Chain of Voltage-gated inwardly rectifying potassium channel KCNH2 (Q12809 whole entry): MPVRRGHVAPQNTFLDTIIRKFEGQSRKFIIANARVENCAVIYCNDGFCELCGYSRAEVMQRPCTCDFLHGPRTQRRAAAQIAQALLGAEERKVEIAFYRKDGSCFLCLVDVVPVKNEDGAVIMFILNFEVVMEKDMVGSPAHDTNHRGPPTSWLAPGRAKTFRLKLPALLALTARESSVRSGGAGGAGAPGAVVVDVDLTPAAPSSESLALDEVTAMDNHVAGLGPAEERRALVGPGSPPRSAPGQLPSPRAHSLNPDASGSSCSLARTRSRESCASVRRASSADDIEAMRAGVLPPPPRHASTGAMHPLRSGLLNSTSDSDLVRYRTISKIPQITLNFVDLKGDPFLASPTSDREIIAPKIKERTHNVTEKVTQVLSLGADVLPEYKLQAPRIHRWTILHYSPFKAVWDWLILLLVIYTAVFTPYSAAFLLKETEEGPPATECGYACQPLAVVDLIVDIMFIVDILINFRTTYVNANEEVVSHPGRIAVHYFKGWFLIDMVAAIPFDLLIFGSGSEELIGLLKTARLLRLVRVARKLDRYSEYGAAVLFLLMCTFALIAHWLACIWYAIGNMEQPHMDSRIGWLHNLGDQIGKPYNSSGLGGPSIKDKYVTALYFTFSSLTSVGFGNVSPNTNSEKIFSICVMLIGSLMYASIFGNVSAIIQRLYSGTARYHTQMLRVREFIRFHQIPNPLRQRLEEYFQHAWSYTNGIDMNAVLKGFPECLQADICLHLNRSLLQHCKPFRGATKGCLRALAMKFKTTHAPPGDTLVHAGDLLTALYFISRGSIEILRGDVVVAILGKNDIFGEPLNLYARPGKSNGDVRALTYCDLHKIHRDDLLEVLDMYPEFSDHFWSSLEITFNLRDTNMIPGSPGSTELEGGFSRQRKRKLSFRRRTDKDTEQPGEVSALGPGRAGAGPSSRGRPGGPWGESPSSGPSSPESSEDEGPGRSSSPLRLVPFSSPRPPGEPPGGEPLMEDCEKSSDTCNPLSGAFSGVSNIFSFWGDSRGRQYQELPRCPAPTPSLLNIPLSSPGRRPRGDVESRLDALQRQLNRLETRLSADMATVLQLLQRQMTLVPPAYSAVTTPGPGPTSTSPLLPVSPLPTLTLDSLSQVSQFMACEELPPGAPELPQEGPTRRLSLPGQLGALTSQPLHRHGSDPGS

[5] = Half life in Sprague-Dawley rat plasma; assay type: ADME, cell-free

Chain of Synaptic vesicular amine transporter (Q01827 whole entry): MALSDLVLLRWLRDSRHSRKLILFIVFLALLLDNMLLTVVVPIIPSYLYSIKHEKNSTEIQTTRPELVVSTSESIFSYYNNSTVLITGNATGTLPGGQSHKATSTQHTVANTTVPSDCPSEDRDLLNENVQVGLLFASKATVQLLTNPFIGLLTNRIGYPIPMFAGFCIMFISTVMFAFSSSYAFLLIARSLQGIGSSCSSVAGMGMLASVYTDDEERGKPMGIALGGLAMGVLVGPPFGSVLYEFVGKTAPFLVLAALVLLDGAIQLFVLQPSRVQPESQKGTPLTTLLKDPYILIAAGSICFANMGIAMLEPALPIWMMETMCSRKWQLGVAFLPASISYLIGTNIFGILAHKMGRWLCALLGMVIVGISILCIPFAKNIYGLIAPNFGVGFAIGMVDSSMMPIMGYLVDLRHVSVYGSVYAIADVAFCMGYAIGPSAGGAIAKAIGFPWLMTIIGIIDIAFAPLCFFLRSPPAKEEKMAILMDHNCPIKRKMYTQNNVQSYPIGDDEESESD

`FCCOc1ccc(CCN2CCC(CCc3ccccc3)CC2)cc1` gave a pKi [1] of 6.82, a pKi [2] of 5.97 and a pKi [3] of 6.41. For the same molecule, the pIC50 [4] was 6.46.

Work on `FCCOc1ccccc1CCN1CCN(CCc2ccc(F)cc2)CC1` yielded a pKi [1] of 7.62 and a pKi [3] of 6.52.

With `FCCOc1ccc(CCC2CCN(CCc3ccccc3Cl)CC2)cc1` the pKi [1] was 6.72 and the pKi [3] was 5.44.

For `FCCOc1cccc(CCN2CCN(CCc3ccccc3)CC2)c1`, the pKi [1] was 7.14.

For `FCCOc1ccccc1CCN1CCN(CCc2ccccc2Cl)CC1`, the pKi [1] was 7.85, the pKi [3] was 7.14 and the pIC50 [4] was 6.07.

For `FCCOc1ccccc1CCC1CCN(CCc2ccc(F)cc2)CC1`, the pKi [1] was 7.57.

Molecule `COc1ccc(CCN2CCC(CCc3ccccc3OCCF)CC2)cc1` has a pKi [1] of 7.14 and a pIC50 [4] of 6.46.

`FCCOc1ccc(CCN2CCN(CCc3ccccc3)CC2)cc1` gave a pKi [1] of 6.22, a pKi [2] of 5.56 and a pKi [3] of 5.47. It also gave a pIC50 [4] of 5.52.

With `COc1ccc(CCN2CCC(CCc3cccc(OCCF)c3)CC2)cc1` the pKi [1] was 7.17, the pKi [3] was 6.18 and the pIC50 [4] was 6.55.

With `FCCOc1ccc(CCN2CCN(CCc3ccccc3Cl)CC2)cc1` the pKi [1] was 6.35, the pKi [3] was 6.32 and the pIC50 [4] was 5.85.

`FCCOc1cccc(CCN2CCC(CCc3ccccc3)CC2)c1` showed a pKi [1] of 7.62.

For `FCCOc1cccc(CCC2CCN(CCc3ccccc3)CC2)c1`, the pKi [1] was 7.28 and the pKi [2] was 5.50.

`CN1[C@@H](CC(=O)c2ccccc2)CCC[C@H]1C[C@H](O)c1ccccc1` [LOBELINE] showed a half-life [5] of 50 min.

With `FCCOc1ccccc1CCC1CCN(CCc2ccccc2)CC1` the pKi [1] was 7.46.

For `COc1ccccc1CCN1CCC(CCc2cccc(OCCF)c2)CC1`, the pKi [1] was 7.21, the pKi [3] was 6.33 and the pIC50 [4] was 6.10.

In the case of `COc1ccccc1CCN1CCC(CCc2ccccc2OCCF)CC1`, the pKi [1] was 7.60.
